Source: patent publication US20100249184A1, “INDUCTION AND/OR MAINTENANCE OF TUMOR DORMANCY BY DISRUPTION OF UROKINASE PLASMINOGEN ACTIVATOR RECEPTOR-INTEGRIN INTERACTION” (MOUNT SINAI SCHOOL OF MEDICINE, priority 2007, published 2010)

What was measured:
T-ELK:GFP cells = assay: ERK activation reporter (GFP, FACS) in T-ELK:GFP cells; type: cell-based, human; conditions: 38 hrs, untreated 7.4%
Text: FIGS. 6A-E show ERK activation and growth in vivo. In FIG. 6A, HEK293 and D-Hep3 cells transfected with uPAR^wt produces stronger activation of ERK than cells transfected with uPAR^S245A or with vector (top and middle panels); HEK293, and D-HEp3 cells, transiently transfected with pcDNA3.1 vector, or with an expression construct for uPAR^wt or uPAR^S245A lysed 48 hrs later and analyzed by Western blotting for phospho-ERK (FIG. 6A, top panels) and ERK 1/2 (FIG. 6A, middle panels) with specific antibodies. The bands were scanned with NIH Image and plotted. The ratio of phospho-ERK to ERK was calculated and expressed as a fraction of the ratio of pcDNA3.1 transfected cells. In FIG. 6A (bottom panels), uPAR^wt and uPAR^S245A expression was determined by Western blotting. […] D-HEp3 cells transfected with vector, or uPAR^wt or uPAR^S245A were detached with EDTA 36 hrs after transfection and 7×10^5 cells in 30 μl PBS were inoculated onto chorioallantoic membranes (“CAMs”) of 10-day old chick embryos. Each sample was inoculated onto 4 CAMs. The CAMs were excised 4 days later and the number of tumor cells was determined as in the Examples. The bars show mean and standard deviation. Paired t-test vector/uPAR^S245A p=0.76, vector/uPAR^wt p=0.0005, uPAR^S245/uPAR^wt p=0.0002. Inset: uPAR expression detected by Western blot with R2 antibody. In FIG. 6C, peptide 240-248, but not peptide 17-24, down regulates P-ERK level. […] The cells were lysed and the lysates were analyzed for P-ERK (FIG. 6C, upper panel) and total ERK (FIG. 6C, lower panel) by Western blotting. […] The cells were processed as in FIG. 6C, except that the bands were scanned by NIH Image the P-ERK/ERK ratio was calculated. […] The cells were detached and analyzed for GFP in FACS Canto using FACSDiva software. […]
[…] The cells were detached and analyzed for GFP by FACS analysis using FACS Canto (Becton Dickinson, Calif.) and FACSDiva software. […] Concentration dependence of P-ERK inhibition was analyzed by scanning P-ERK and ERK bands with NIH-Image and expressing their ratios as % of the ratio in untreated control (T-HEp3) cells. […]

[1] = molecular target: T1, α5β1-integrin/uPAR complex (Homo sapiens, UniProt P05556+P08648); assay: Disruption of preformed uPAR/α5β1-integrin complex (co-immunoprecipitation); type: biochemical; conditions: cell lysates incubated with 20 μM peptide, 20 min at 4° C., pull-down with anti-α5β1 (HA5)
T1 construct: endogenous in cells; host or cells: T-HEp3 (human epidermoid carcinoma) cell lysate
T1 sequence (P08648 42-894 limits assumed): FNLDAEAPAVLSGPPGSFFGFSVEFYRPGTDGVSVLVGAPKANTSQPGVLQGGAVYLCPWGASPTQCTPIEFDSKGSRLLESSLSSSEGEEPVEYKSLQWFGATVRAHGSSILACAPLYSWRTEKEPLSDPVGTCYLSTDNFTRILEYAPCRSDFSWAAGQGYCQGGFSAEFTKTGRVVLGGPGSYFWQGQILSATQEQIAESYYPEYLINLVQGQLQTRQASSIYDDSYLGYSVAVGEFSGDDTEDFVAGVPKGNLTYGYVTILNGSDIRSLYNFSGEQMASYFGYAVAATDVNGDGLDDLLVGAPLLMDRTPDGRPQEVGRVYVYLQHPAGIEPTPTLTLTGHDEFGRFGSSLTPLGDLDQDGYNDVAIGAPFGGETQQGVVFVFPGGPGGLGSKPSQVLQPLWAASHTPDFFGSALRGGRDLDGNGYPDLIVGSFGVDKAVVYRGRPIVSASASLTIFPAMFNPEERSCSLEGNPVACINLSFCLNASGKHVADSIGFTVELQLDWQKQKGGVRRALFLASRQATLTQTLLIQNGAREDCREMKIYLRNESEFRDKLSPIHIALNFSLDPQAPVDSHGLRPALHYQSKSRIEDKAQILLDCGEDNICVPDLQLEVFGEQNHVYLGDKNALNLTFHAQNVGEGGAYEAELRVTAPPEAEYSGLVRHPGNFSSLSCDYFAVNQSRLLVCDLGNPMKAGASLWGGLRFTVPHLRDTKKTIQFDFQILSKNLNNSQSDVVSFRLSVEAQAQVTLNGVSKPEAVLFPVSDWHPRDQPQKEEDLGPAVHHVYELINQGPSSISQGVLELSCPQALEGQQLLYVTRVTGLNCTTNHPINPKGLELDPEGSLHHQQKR
T1 sequence (P08648 895-1049 limits assumed): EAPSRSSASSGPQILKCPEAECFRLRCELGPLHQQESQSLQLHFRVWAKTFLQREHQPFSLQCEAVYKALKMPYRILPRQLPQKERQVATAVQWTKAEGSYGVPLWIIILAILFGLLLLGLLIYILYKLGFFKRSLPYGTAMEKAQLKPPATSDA
T1 sequence (P05556 21-798): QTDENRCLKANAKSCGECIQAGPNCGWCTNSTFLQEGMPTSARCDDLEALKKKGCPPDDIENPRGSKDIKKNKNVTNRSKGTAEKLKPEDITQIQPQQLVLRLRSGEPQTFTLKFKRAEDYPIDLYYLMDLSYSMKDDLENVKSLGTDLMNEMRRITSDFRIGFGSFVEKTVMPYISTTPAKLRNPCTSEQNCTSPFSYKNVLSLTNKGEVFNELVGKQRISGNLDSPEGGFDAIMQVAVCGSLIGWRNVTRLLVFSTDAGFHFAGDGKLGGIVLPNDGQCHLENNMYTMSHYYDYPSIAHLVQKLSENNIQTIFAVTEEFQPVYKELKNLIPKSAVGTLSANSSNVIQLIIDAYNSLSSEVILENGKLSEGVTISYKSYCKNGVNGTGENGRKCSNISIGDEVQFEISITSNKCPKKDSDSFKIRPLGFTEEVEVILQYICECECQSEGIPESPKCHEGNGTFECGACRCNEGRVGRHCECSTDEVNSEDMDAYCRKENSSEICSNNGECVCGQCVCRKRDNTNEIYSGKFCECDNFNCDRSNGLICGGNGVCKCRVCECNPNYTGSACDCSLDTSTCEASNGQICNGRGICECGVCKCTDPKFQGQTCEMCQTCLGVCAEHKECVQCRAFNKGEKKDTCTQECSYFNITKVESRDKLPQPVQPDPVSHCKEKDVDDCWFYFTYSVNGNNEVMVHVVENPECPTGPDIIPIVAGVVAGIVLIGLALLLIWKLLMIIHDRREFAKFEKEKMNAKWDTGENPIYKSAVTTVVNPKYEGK
Description: FIGS. 5A-B show the physical interaction between uPAR and α5β1-integrin. […] D-HEp3 cells were transfected with vector (pcDNA3.1) alone or with constructs expressing uPAR^wt or uPAR^S245A and after 48 hrs the cells were surface biotinylated and lysed as described in the Examples. Half of each lysate (0.8 mg of protein) was immunoprecipitated with 5 μg monoclonal anti-uPAR(R3) antibody and half with 5 μg monoclonal anti-α5β1-integrin (HA5) antibody. Isotype-matched IgG served as negative control. The immunoprecipitates were separated on an SDS-PAGE and the bands were detected with streptavidin-HRP conjugate and ECL. […] The numbers represent uPAR precipitated by anti-α5β1 antibody as percent of total uPAR. The experiment was repeated 5 times using the same and additional anti-integrin and anti-uPAR antibodies with essentially similar results. FIG. 5B is a graph showing the disruption of uPAR and α5β1-integrin complex with peptides 240-248 and S245A. T-HEp3 cells were surface biotinylated and lysed as described in the Examples. The lysate was precleared with isotype-matched IgG and aliquots containing 0.8 mg protein were incubated with peptides 240-248 and S245A (5 μM and 20 μM) or without peptides (Control, C) for 20 min at 4° C. followed by IP with 5 μg of monoclonal anti-α5β1-integrin (HAS) antibody for 90 min. The immunoprecipitates were analyzed as in FIG. 5A and scanned with NIH Image. […]

Row | Substance | GFP-positive cells (% of total) (T-ELK:GFP cells; 25 μM peptide) [%] | GFP-positive cells (% of total) (T-ELK:GFP cells; 5 μM peptide) [%] | disruption of preformed uPAR/integrin complex [1]
1 | peptide 17-24: synthetic uPAR-derived peptide, domain I amino acid 17-24: CALGQDLC (SEQ ID NO:5); negative control [reference compound] | 6.2 | – | –
2 | peptide 240-248: synthetic uPAR-derived peptide, domain III residues 240-248: GCATASMCQ (SEQ ID NO:9) | 0.7 | 1.6 | disrupted
